ChEMBL document CHEMBL4118101 (Bioorg Med Chem, 2018)
≈ marks a conversion by molar mass, not a printed value. Calls of active or inactive are those of the source. The rule behind the calls is not given here.

Tests used:
Candida albicans [1] = test: Antifungal activity against fluconazole/ITC-susceptible Candida albicans ATCC MYA-2876 measured after 48 hrs by CLSI M27-A3 protocol based method; type: functional; details: Candida albicans, ATCC MYA-2876, 48 h
[2] = Hemolytic activity in mouse RBC at 31.3 ug/ml after 1 hr relative to control; type: ADME, cell-based, Erythrocyte; details: mouse red blood cells (erythrocytes), at 31.3 µg/mL, read-out: Activity
Aspergillus flavus = test: Antifungal activity against Aspergillus flavus ATCC MYA-3631 measured after 48 hrs by CLSI M38-A2 protocol based method; type: functional; details: ATCC MYA-3631, 48 h
Candida albicans [3] = test: Induction of membrane permeabilization in Candida albicans ATCC 10231 assessed as membrane disruption at 4 times MIC after 1 hr by propidium iodide staining based fluorescence microscopy; type: functional, organism-based
[4] = Hemolytic activity in mouse RBC at 7.8 ug/ml after 1 hr relative to control; type: ADME, cell-based, Erythrocyte; details: mouse red blood cells (erythrocytes), read-out: Activity
Candida albicans [5] = details: ATCC 10231, 0.975 ug/ml
[6] = Hemolytic activity in mouse RBC at 1.95 ug/ml after 1 hr relative to control; type: ADME, cell-based, Erythrocyte; details: mouse red blood cells (erythrocytes), at 1.95 µg/mL, read-out: Activity
Cryptococcus neoformans [7] = test: Antifungal activity against Cryptococcus neoformans isolate CN1 measured after 48 hrs by CLSI M27-A3 protocol based method; type: functional; details: isolate CN1, 48 h
Candida parapsilosis [8] = test: Antifungal activity against Candida parapsilosis ATCC 22019 measured after 48 hrs by CLSI M27-A3 protocol based method; type: functional; details: Lodderomyces parapsilosis, ATCC 22019, 48 h
Cryptococcus neoformans [9] = test: Antifungal activity against Cryptococcus neoformans isolate CN3 measured after 48 hrs by CLSI M27-A3 protocol based method; type: functional; details: Cryptococcus neoformans, isolate CN3, 48 h; read-out: MIC
Candida albicans [10] = details: ATCC 10231, 0.975 ug/ml; remark: listed apart in the source
Aspergillus nidulans [11] = test: Antifungal activity against Aspergillus nidulans ATCC 38163 measured after 48 hrs in presence of 10% FBS by CLSI M38-A2 protocol based method; type: functional; details: ATCC 38163, 48 h
Candida albicans [12] = test: Antifungal activity against fluconazole/ITC-resistant Candida albicans ATCC MYA-1237 measured after 48 hrs by CLSI M27-A3 protocol based method; type: functional; details: Candida albicans, ATCC MYA-1237, 48 h; read-out: MIC
[13] = Hemolytic activity in mouse RBC at 62.5 ug/ml after 1 hr relative to control; type: ADME, cell-based, Erythrocyte; details: mouse red blood cells (erythrocytes), read-out: Activity
Candida parapsilosis [14] = test: Antifungal activity against Candida parapsilosis isolate CP2 measured after 48 hrs by CLSI M27-A3 protocol based method; type: functional; details: Lodderomyces parapsilosis, isolate CP2, 48 h
Aspergillus nidulans [15] = test: Antifungal activity against Aspergillus nidulans ATCC 38163 measured after 48 hrs by CLSI M38-A2 protocol based method; type: functional; details: ATCC 38163, 48 h
Nakaseomyces glabratus [16] = test: Antifungal activity against Candida glabrata isolate CG3 measured after 48 hrs by CLSI M27-A3 protocol based method; type: functional; details: Nakaseomyces glabratus, 48 h; read-out: MIC
Candida albicans [17] = test: Antifungal activity against fluconazole/ITC-resistant Candida albicans ATCC 90819 measured after 48 hrs by CLSI M27-A3 protocol based method; type: functional; details: Candida albicans, ATCC 90819, 48 h; read-out: MIC
Nakaseomyces glabratus [18] = test: Antifungal activity against Candida glabrata isolate CG2 measured after 48 hrs by CLSI M27-A3 protocol based method; type: functional; details: Nakaseomyces glabratus, isolate CG2, 48 h; read-out: MIC
Pichia kudriavzevii = test: Antifungal activity against Candida krusei ATCC 6258 measured after 48 hrs by CLSI M27-A3 protocol based method; type: functional; details: Pichia kudriavzevii, ATCC 6258, 48 h
Candida parapsilosis [19] = test: Antifungal activity against Candida parapsilosis isolate CP1 measured after 48 hrs by CLSI M27-A3 protocol based method; type: functional; details: Lodderomyces parapsilosis, isolate CP1, 48 h
Candida albicans [20] = test: Antifungal activity against Candida albicans ATCC 64124 measured after 48 hrs by CLSI M27-A3 protocol based method; type: functional; details: Candida albicans, ATCC 64124, 48 h; read-out: MIC
Candida albicans [21] = test: Antifungal activity against Candida albicans ATCC 10231 measured after 48 hrs by CLSI M27-A3 protocol based method; type: functional; details: ATCC 10231, 48 h
Nakaseomyces glabratus [22] = test: Antifungal activity against Candida glabrata isolate CG1 measured after 48 hrs by CLSI M27-A3 protocol based method; type: functional; details: Nakaseomyces glabratus, 48 h; read-out: MIC
Candida albicans [23] = test: Antifungal activity against fluconazole/ITC-susceptible Candida albicans ATCC MYA-2310 measured after 48 hrs by CLSI M27-A3 protocol based method; type: functional; details: Candida albicans, ATCC MYA-2310, 48 h; read-out: MIC
Candida albicans [24] = details: ATCC 10231, 0.975 ug/ml; remark: listed apart in the source
Nakaseomyces glabratus [25] = test: Antifungal activity against Candida glabrata ATCC 2001 measured after 48 hrs by CLSI M27-A3 protocol based method; type: functional, CBS 138; details: Nakaseomyces glabratus, CBS 138, 48 h; read-out: MIC
[26] = Hemolytic activity in mouse RBC at 3.9 ug/ml after 1 hr relative to control; type: ADME, cell-based, Erythrocyte; details: mouse red blood cells (erythrocytes), read-out: Activity
Candida albicans [27] = test: Antifungal activity against fluconazole/ITC-resistant Candida albicans ATCC MYA-1003 measured after 48 hrs by CLSI M27-A3 protocol based method; type: functional; details: Candida albicans, ATCC MYA-1003, 48 h; read-out: MIC
A549 = test: Cytotoxicity against human A549 cells up to 7.8 ug/ml after 24 hrs by resazurin based assay; type: cell-based; details: a549, 24 h
[28] = Cytotoxicity against HEK293 cells assessed as cell survival at 3.9 ug/ml after 24 hrs by resazurin based assay relative to control; details: human, read-out: Survival
[29] = Hemolytic activity in mouse RBC at […] ug/ml after 1 hr relative to control; type: ADME, cell-based, Erythrocyte; details: mouse red blood cells (erythrocytes), read-out: Activity
Candida parapsilosis [30] = test: Antifungal activity against Candida parapsilosis ATCC 22019 measured after 48 hrs in presence of 10% FBS by CLSI M27-A3 protocol based method; type: functional; details: Lodderomyces parapsilosis, ATCC 22019, 48 h
Cryptococcus neoformans [31] = test: Antifungal activity against Cryptococcus neoformans isolate CN2 measured after 48 hrs by CLSI M27-A3 protocol based method; type: functional; details: Cryptococcus neoformans, isolate CN2, 48 h; read-out: MIC
Candida albicans [32] = details: ATCC 10231, 0.975 ug/ml; remark: listed apart in the source
[33] = Hemolytic activity in mouse RBC at 0.48 ug/ml after 1 hr relative to control; type: ADME, cell-based, Erythrocyte; details: mouse red blood cells (erythrocytes), read-out: Activity
Aspergillus terreus = test: Antifungal activity against Aspergillus terreus ATCC MYA-3633 measured after 48 hrs by CLSI M38-A2 protocol based method; type: functional; details: ATCC MYA-3633, 48 h
Candida parapsilosis [34] = test: Antifungal activity against Candida parapsilosis isolate CP3 measured after 48 hrs by CLSI M27-A3 protocol based method; type: functional; details: Lodderomyces parapsilosis, isolate CP3, 48 h
Candida albicans [35] = test: Antifungal activity against Candida albicans ATCC 10231 measured after 48 hrs in presence of 10% FBS by CLSI M27-A3 protocol based method; type: functional; details: Candida albicans, ATCC 10231, 48 h
BEAS-2B = test: Cytotoxicity against human BEAS2B cells up to 7.8 ug/ml after 24 hrs by resazurin based assay; type: cell-based

## CCCCCCCCCCCCCCNCC(O)(Cn1cncn1)c1ccc(F)cc1F (stereo unspecified)
Candida albicans [1]
  MIC: > 69.5 µM
[2]
  hemolysis at 1 h, 31.3 ug/ml: < 50%
Aspergillus flavus
  MIC: > 69.5 µM
Candida albicans [3]
  Activity: inactive
[4]
  hemolysis at 1 h, 7.8 ug/ml: 17%
Candida albicans [5]
  Activity: 1.16%
[6]
  hemolysis at 1 h, 1.95 ug/ml: 3%
Cryptococcus neoformans [7]
  MIC: 0.27 µM (≈ 0.122 µg/mL)
Candida parapsilosis [8]
  MIC: 1.1 µM (≈ 0.496 µg/mL)
Cryptococcus neoformans [9]
  MIC: 1.1 µM (≈ 0.496 µg/mL)
Candida albicans [10]
  Activity: 8.33%
Aspergillus nidulans [11]
  MIC: 31.2 µg/mL
Candida albicans [12]
  MIC: > 69.5 µM
[13]
  hemolysis at 1 h, 62.5 ug/ml: 77%
Candida parapsilosis [14]
  MIC: 2.2 µM (≈ 0.991 µg/mL)
Aspergillus nidulans [15]
  MIC: 8.7 µM (≈ 3.92 µg/mL)
Nakaseomyces glabratus [16]
  MIC: 8.7 µM (≈ 3.92 µg/mL)
Candida albicans [17]
  MIC: 17.3 µM (≈ 7.8 µg/mL)
Nakaseomyces glabratus [18]
  MIC: 4.3 µM (≈ 1.94 µg/mL)
Pichia kudriavzevii
  MIC: 8.7 µM (≈ 3.92 µg/mL)
Candida parapsilosis [19]
  MIC: 1.1 µM (≈ 0.496 µg/mL)
Candida albicans [20]
  MIC: > 69.5 µM
Candida albicans [21]
  MIC: 4.3 µM (≈ 1.94 µg/mL)
Nakaseomyces glabratus [22]
  MIC: 4.3 µM (≈ 1.94 µg/mL)
Candida albicans [23]
  MIC: 69.5 µM (≈ 31.3 µg/mL)
Candida albicans [24]
  Activity: 36.4%
Nakaseomyces glabratus [25]
  MIC: 2.2 to 4.3 µM (≈ 0.991 to 1.94 µg/mL)
[26]
  hemolysis at 1 h, 3.9 ug/ml: 10%
Candida albicans [27]
  MIC: 69.5 µM (≈ 31.3 µg/mL)
A549
  Activity: Non-Toxic
[28]
  viability at 24 h, 3.9 ug/ml: > 50%
[29]
  hemolysis at 1 h, 0.975 ug/ml: 6%
  hemolysis at 1 h, 15.6 ug/ml: 29%
Candida parapsilosis [30]
  MIC: 0.975 µg/mL
Cryptococcus neoformans [31]
  MIC: 0.53 µM (≈ 0.239 µg/mL)
Candida albicans [32]
  Activity: 15.6%
[33]
  hemolysis at 1 h, 0.48 ug/ml: 2%
Aspergillus terreus
  MIC: 17.3 µM (≈ 7.8 µg/mL)
Candida parapsilosis [34]
  MIC: 1.1 µM (≈ 0.496 µg/mL)
Candida albicans [35]
  MIC: 7.8 µg/mL
BEAS-2B
  Activity: Non-Toxic
